Laboratory results reported in patent US20120053148A1, “INHIBITORS OF HEPATITIS C VIRUS” (GILEAD SCIENCES, INC., priority 2010, published 2012).

System: HCV Replicon IB
Test: HCV replicon assay in Huh-7 cells, genotype 1b (Rluc luciferase readout)
Format: cell-based, hepatitis C virus
Conditions: Hepatitis C virus, 72 h; 10 uM; 1b-Rluc replicon, Huh-7 cells, 3 days; read-out: Inhibition @ 10 uM in 1b-Rluc

SMILES | inhibition at 10 µM
Cc1cc(C(=O)NC[C@H]2CCCN2)nc2c(C(F)(F)F)cc(C3CC3)cc12 (single isomer, unassigned) [Compound 113] | 96.2%
COC1CN[C@H](CNC(=O)c2cc(C)c3cc(C4CC4)cc(C(F)(F)F)c3n2)C1 (single isomer, unassigned) [Compound 127] | 99.7%
O=C(NC[C@@H]1C[C@@H](F)CN1)c1cc(Cl)c2cc(OC(F)F)cc(C(F)(F)F)c2n1 (single isomer, unassigned) [Compound 199] | 98.1%
Cc1cc(C(=O)NC[C@@H]2CC(F)(F)CCN2)nc2c(C(F)(F)F)cc(OC(F)F)cc12 (single isomer, unassigned) [Compound 202] | 99.5%
O=C(NC[C@@H]1CC(F)(F)CCN1)c1cc(Cl)c2cc(OC(F)F)cc(C(F)(F)F)c2n1 (single isomer, unassigned) [Compound 203] | 98.3%
Cc1cc(C(=O)NCc2ccccn2)nc2c(C(F)(F)F)cc(C3CC3)cc12 [Compound 79] | 100%
Cc1cc(C(=O)NCc2cccc(F)n2)nc2c(C(F)(F)F)cc(C3CC3)cc12 [Compound 80] | 99.8%
Cc1cc(C(=O)NCC2CCCCO2)nc2c(C(F)(F)F)cc(C3CC3)cc12 (stereo not drawn) [Compound 81] | 100%
Cc1cc(C(=O)NCC2OCCCO2)nc2c(C(F)(F)F)cc(C3CC3)cc12 [Compound 82] | 100%
Cc1cccc(CNC(=O)c2cc(C)c3cc(C4CC4)cc(C(F)(F)F)c3n2)n1 [Compound 83] | 99.4%
Cc1cccnc1CNC(=O)c1cc(C)c2cc(C3CC3)cc(C(F)(F)F)c2n1 [Compound 84] | 99%
Cc1ccc(CNC(=O)c2cc(C)c3cc(C4CC4)cc(C(F)(F)F)c3n2)nc1 [Compound 85] | 100%
Cc1cc(C(=O)NCc2cc(C(F)(F)F)ccn2)nc2c(C(F)(F)F)cc(C3CC3)cc12 [Compound 86] | 100%
Cc1cc(C(=O)NCC2(NC(=O)OC(C)(C)C)CC2)nc2c(C(F)(F)F)cc(C3CC3)cc12 [Compound 87] | 84.5%
Cc1cc(C(=O)NCC2(N)CC2)nc2c(C(F)(F)F)cc(C3CC3)cc12 [Compound 88] | 95.6%
Cc1cc(C(=O)NCc2cnccn2)nc2c(C(F)(F)F)cc(C3CC3)cc12 [Compound 89] | 100%
Cc1cc(C(=O)NCc2ncccn2)nc2c(C(F)(F)F)cc(C3CC3)cc12 [Compound 90] | 100%
Cc1cc(C(=O)NCC2CCCC(=O)N2)nc2c(C(F)(F)F)cc(C3CC3)cc12 (stereo not drawn) [Compound 91] | 92.7%
Cc1cc(C(=O)NC[C@H]2CCCO2)nc2c(C(F)(F)F)cc(C3CC3)cc12 [Compound 92] | 100%
Cc1cc(C(=O)NCC(C)(C)O)nc2c(C(F)(F)F)cc(C3CC3)cc12 [Compound 93] | 99%
Cc1cc(C(=O)NCC2(O)CCCC2)nc2c(C(F)(F)F)cc(C3CC3)cc12 [Compound 94] | 99.9%
CCC(=O)CNC(=O)c1cc(C)c2cc(C3CC3)cc(C(F)(F)F)c2n1 [Compound 95] | 100%
Cc1cc(C(=O)NCC2OCCO2)nc2c(C(F)(F)F)cc(C3CC3)cc12 [Compound 96] | 99.9%
Cc1cc(C(=O)NCC2(O)CC2)nc2c(C(F)(F)F)cc(C3CC3)cc12 [Compound 97] | 98.8%
Cc1cc(C(=O)NCC2(C)OCCO2)nc2c(C(F)(F)F)cc(C3CC3)cc12 [Compound 98] | 98.1%
Cc1cc(C(=O)NCC2COCCN2)nc2c(C(F)(F)F)cc(C3CC3)cc12 (stereo not drawn) [Compound 100] | 99.5%

SMILES | inhibition at 10 µM
CC(=O)N1CCOCC1CNC(=O)c1cc(C)c2cc(C3CC3)cc(C(F)(F)F)c2n1 (stereo not drawn) [Compound 101] | 73.3%
Cc1cc(C(=O)NCC2CC2)nc2c(C(F)(F)F)cc(C3CC3)cc12 [Compound 102] | 99.7%
Cc1cc(C(=O)NCC2(C)COC2)nc2c(C(F)(F)F)cc(C3CC3)cc12 [Compound 103] | 96.1%
Cc1cc(C(=O)NCCC#N)nc2c(C(F)(F)F)cc(-c3ccccc3)cc12 [Compound 104] | 70.3%
Cc1cc(C(=O)NCC#N)nc2c(C(F)(F)F)cc(-c3ccccc3)cc12 [Compound 105] | 82.8%
Cc1cc(C(=O)NCCC2OCCO2)nc2c(C(F)(F)F)cc(C3CC3)cc12 [Compound 106] | 99.7%
Cc1cc(C(=O)NCC2CCCCN2C(=O)OC(C)(C)C)nc2c(C(F)(F)F)cc(C3CC3)cc12 (stereo not drawn) [Compound 107] | 94.5%
Cc1cc(C(=O)NCC2CCCCN2)nc2c(C(F)(F)F)cc(C3CC3)cc12 (stereo not drawn) [Compound 108] | 96.5%
Cc1cc(C(=O)NCc2cc(C#N)ccn2)nc2c(C(F)(F)F)cc(C3CC3)cc12 [Compound 110] | 99.9%
Cc1cc(C(=O)NCc2ccc(C#N)cn2)nc2c(C(F)(F)F)cc(C3CC3)cc12 [Compound 112] | 99.7%
CNC(=O)CNC(=O)c1cc(C)c2cc(C3CC3)cc(C(F)(F)F)c2n1 [Compound 116] | 97.2%
COCCNC(=O)CNC(=O)c1cc(C)c2cc(C3CC3)cc(C(F)(F)F)c2n1 [Compound 117] | 94.7%
COCCCNC(=O)CNC(=O)c1cc(C)c2cc(C3CC3)cc(C(F)(F)F)c2n1 [Compound 118] | 84.5%
COCCNC(=O)c1cc(C)c2cc(C3CC3)cc(C(F)(F)F)c2n1 [Compound 119] | 99.5%
COCCCNC(=O)c1cc(C)c2cc(C3CC3)cc(C(F)(F)F)c2n1 [Compound 120] | 99.8%
Cc1cc(C(=O)NCCCO)nc2c(C(F)(F)F)cc(C3CC3)cc12 [Compound 121] | 99.2%
Cc1cc(C(=O)NCCCN2CCOCC2)nc2c(C(F)(F)F)cc(C3CC3)cc12 [Compound 122] | 97.2%
CNCCCNC(=O)c1cc(C)c2cc(C3CC3)cc(C(F)(F)F)c2n1 [Compound 123] | 96.7%
Cc1cc(C(=O)NCCC2CCCCN2)nc2c(C(F)(F)F)cc(C3CC3)cc12 (stereo not drawn) [Compound 124] | 99.2%
Cc1cc(C(=O)NCC2CCN2)nc2c(C(F)(F)F)cc(C3CC3)cc12 (stereo not drawn) [Compound 125] | 95.2%
Cc1cc(C(=O)NCCCN2CC(O)C2)nc2c(C(F)(F)F)cc(C3CC3)cc12 [Compound 126] | 90.1%
Cc1cc(C(=O)NC[C@H]2CC(F)(F)CN2)nc2c(C(F)(F)F)cc(C3CC3)cc12 [Compound 128] | 99.4%
Cc1cc(C(=O)NCCNc2ccccn2)nc2c(C(F)(F)F)cc(C3CC3)cc12 [Compound 129] | 94.9%
Cc1cc(C(=O)NCc2cc(CN3CCOCC3)ccn2)nc2c(C(F)(F)F)cc(C3CC3)cc12 [Compound 130] | 84.7%
Cc1cc(C(=O)NC[C@@H]2CC(F)(F)CCN2)nc2c(C(F)(F)F)cc(C3CC3)cc12 [Compound 132] | 100%

Same assay, conditions: Hepatitis C virus, Huh-7, 72 h, HCV1B replicon, Huh-7 cells, 3 days; read-out: EC50_HCV1B_

SMILES | EC50
Cc1cc(-c2nnc(N[C@H]3CC[C@@](C)(O)C3)o2)nc2c(C(C)(C)C)cc(OCC(F)(F)F)cc12 (racemic) [Compound 474] | 1.02 nM
Cc1cc(-c2nnc(N[C@H]3CC[C@@H](O)C3)o2)nc2c(C(C)(C)C)cc(OCC(F)(F)F)cc12 (racemic) [Compound 476] | 1.32 nM
Cc1cc(-c2nnc(N[C@H]3CC[C@H](O)C3)o2)nc2c(C(C)(C)C)cc(OCC(F)(F)F)cc12 (racemic) [Compound 477] | 2.22 nM
